Assays:
[1] = target: T1, CK1α (Homo sapiens, UniProt P48729+Q96SW2); experiment: Western-blot assay, substrate protein degradation in hPBMCs: CK1α; format: cell-based; settings: for CK1α substrate protein remaining %: compounds at 50 nM and 500 nM, 24 hours; for substrate protein remaining % CK1α: 24 hours of compound treatment, 50 nM and 500 nM
T1 construct: effects of the compounds of the present disclosure on the expression of target proteins in cells; endogenous in cells; host or cells: human PBMCs (hPBMCs)

[2] = target: T2, IKZF2 (Homo sapiens, UniProt Q96SW2+Q9UKS7); experiment: Western-blot assay, substrate protein degradation in hPBMCs: IKZF2; format: cell-based; settings: for IKZF2 substrate protein remaining %: compounds at 50 nM and 500 nM, 24 hours; for substrate protein remaining % IKZF2: 24 hours of compound treatment, 50 nM and 500 nM
T2 construct: effects of the compounds of the present disclosure on the expression of target proteins in cells; endogenous in cells; host or cells: human PBMCs (hPBMCs)

[3] = target: T3, WEE1 (Homo sapiens, UniProt P30291+Q96SW2); experiment: Western-blot assay, substrate protein degradation in hPBMCs: WEE1; format: cell-based; settings: for WEE1 substrate protein remaining %: compounds at 50 nM and 500 nM, 24 hours; for substrate protein remaining % WEE1: 24 hours of compound treatment, 50 nM and 500 nM
T3 construct: effects of the compounds of the present disclosure on the expression of target proteins in cells; endogenous in cells; host or cells: human PBMCs (hPBMCs)

[4] = test system: MV-4-11; experiment: Cell viability assay (CellTiter-Meiluncell Luminescent), tumor cell proliferation, MV-4-11; settings: Homo sapiens, MV4-11, 96 h; for IC50: read-out: inhibitory activity (IC50, nM) against tumor cells proliferation, MV-4-11; for inhibition at 0.01 µM: read-out: Inhibition Rate at 10 nM (%); for inhibition at 0.5 µM: read-out: Inhibition Rate at 500 nM (%)
[5] = target: T4, GSPT1 (Homo sapiens, UniProt P15170+Q96SW2); experiment: Western-blot assay, substrate protein degradation in hPBMCs: GSPT1; format: cell-based; settings: for GSPT1 substrate protein remaining %: compounds at 50 nM and 500 nM, 24 hours; for substrate protein remaining % GSPT1: 24 hours of compound treatment, 50 nM and 500 nM
T4 construct: effects of the compounds of the present disclosure on the expression of target proteins in cells; endogenous in cells; host or cells: human PBMCs (hPBMCs)

[6] = target: T5, IKZF1 (Homo sapiens, UniProt Q13422+Q96SW2); experiment: Western-blot assay, substrate protein degradation in hPBMCs: IKZF1; format: cell-based; settings: for IKZF1 substrate protein remaining %: compounds at 50 nM and 500 nM, 24 hours; for substrate protein remaining % IKZF1: 24 hours of compound treatment, 50 nM and 500 nM
T5 construct: effects of the compounds of the present disclosure on the expression of target proteins in cells; endogenous in cells; host or cells: human PBMCs (hPBMCs)

[7] = target: T6, IKZF3 (Homo sapiens, UniProt Q96SW2+Q9UKT9); experiment: Western-blot assay, substrate protein degradation in hPBMCs: IKZF3; format: cell-based; settings: for IKZF3 substrate protein remaining %: compounds at 50 nM and 500 nM, 24 hours; for substrate protein remaining % IKZF3: 24 hours of compound treatment, 50 nM and 500 nM
T6 construct: effects of the compounds of the present disclosure on the expression of target proteins in cells; endogenous in cells; host or cells: human PBMCs (hPBMCs)
T6 sequence (Q9UKT9 whole entry): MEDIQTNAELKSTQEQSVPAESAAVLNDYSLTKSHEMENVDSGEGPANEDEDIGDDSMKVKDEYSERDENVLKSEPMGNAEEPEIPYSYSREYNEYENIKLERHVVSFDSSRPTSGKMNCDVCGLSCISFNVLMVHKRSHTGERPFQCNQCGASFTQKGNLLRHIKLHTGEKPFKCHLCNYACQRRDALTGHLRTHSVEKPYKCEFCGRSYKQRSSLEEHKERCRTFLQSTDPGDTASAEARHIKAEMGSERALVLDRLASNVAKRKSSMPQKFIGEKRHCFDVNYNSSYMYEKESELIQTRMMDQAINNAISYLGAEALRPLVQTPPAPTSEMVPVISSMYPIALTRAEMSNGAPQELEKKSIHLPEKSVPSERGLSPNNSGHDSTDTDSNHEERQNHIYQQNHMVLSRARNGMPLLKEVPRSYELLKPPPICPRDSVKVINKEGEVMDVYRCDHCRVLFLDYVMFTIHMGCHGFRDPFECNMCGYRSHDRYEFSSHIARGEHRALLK
T6 sequence (Q96SW2 whole entry): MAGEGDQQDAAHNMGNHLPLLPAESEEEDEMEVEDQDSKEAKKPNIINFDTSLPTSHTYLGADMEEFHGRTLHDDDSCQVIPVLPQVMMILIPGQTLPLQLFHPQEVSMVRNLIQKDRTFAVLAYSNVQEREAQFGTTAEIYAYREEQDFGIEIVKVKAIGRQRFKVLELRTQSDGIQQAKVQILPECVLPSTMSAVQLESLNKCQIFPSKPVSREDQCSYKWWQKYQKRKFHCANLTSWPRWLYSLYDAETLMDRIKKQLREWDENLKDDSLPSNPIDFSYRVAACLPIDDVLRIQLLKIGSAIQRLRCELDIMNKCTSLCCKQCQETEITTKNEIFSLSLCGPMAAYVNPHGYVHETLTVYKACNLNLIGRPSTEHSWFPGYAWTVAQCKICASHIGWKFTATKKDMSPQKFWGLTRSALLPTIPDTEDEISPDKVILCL
T6 sequence (Q16531 whole entry partner): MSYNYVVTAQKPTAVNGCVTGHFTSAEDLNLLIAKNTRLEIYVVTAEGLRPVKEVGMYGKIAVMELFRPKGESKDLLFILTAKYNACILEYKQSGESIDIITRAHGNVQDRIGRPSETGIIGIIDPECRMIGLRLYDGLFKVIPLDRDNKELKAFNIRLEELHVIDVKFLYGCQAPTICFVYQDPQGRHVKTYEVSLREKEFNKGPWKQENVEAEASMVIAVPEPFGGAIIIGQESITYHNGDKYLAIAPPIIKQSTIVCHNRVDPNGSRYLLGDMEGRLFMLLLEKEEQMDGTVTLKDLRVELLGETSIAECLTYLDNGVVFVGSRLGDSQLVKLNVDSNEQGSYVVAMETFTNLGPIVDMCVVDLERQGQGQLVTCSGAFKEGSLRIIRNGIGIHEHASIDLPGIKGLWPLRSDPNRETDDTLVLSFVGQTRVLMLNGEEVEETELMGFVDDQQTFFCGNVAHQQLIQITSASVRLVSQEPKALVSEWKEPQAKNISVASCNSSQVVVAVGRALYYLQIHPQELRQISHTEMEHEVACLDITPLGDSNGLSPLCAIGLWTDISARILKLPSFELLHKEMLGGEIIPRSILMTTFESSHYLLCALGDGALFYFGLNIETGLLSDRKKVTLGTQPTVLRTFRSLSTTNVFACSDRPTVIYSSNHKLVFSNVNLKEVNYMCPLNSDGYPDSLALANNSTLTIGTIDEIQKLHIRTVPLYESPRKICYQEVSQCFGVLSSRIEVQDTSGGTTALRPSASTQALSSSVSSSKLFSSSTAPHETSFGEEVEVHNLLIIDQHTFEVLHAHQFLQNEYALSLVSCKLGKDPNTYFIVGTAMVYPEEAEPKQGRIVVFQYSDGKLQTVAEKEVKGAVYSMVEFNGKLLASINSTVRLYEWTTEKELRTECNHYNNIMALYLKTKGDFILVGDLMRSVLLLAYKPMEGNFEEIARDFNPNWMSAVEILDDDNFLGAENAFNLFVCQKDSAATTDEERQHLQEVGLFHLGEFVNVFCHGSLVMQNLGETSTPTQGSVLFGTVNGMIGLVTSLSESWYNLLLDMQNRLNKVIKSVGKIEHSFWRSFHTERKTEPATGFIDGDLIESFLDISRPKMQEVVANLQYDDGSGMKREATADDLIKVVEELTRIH

T2 sequence (Q9UKS7 whole entry): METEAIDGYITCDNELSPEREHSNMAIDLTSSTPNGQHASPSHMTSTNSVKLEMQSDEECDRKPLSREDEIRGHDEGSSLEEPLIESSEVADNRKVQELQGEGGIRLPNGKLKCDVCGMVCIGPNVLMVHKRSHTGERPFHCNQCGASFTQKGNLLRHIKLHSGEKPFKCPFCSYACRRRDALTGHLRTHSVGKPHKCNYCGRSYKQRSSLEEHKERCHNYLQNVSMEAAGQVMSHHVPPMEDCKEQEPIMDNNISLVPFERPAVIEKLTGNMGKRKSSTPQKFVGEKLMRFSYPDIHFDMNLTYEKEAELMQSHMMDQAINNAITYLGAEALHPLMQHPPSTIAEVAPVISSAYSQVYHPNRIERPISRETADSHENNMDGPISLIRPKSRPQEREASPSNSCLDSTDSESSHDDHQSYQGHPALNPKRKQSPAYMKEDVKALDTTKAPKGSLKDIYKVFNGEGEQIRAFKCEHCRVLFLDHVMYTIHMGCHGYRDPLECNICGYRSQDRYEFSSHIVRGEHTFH
T2 sequence (Q96SW2 whole entry): as the sequence (Q96SW2 whole entry) above
T2 sequence (Q16531 whole entry partner): as the sequence (Q16531 whole entry partner) above
T4 sequence (P15170 whole entry): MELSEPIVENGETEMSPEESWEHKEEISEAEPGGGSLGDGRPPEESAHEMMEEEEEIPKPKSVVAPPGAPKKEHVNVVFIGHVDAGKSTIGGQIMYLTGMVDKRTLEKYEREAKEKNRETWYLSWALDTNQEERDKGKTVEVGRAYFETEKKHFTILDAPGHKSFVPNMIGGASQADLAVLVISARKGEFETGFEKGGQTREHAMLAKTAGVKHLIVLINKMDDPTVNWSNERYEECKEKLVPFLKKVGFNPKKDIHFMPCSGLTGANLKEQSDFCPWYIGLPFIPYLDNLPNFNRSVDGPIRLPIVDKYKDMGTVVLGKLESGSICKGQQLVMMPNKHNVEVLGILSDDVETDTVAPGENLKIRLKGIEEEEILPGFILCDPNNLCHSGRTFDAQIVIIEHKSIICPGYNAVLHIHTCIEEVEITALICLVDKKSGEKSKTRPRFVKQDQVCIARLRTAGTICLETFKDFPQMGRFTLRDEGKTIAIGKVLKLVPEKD
T4 sequence (Q96SW2 whole entry): as the sequence (Q96SW2 whole entry) above
T4 sequence (Q16531 whole entry partner): as the sequence (Q16531 whole entry partner) above
T5 sequence (Q13422 whole entry): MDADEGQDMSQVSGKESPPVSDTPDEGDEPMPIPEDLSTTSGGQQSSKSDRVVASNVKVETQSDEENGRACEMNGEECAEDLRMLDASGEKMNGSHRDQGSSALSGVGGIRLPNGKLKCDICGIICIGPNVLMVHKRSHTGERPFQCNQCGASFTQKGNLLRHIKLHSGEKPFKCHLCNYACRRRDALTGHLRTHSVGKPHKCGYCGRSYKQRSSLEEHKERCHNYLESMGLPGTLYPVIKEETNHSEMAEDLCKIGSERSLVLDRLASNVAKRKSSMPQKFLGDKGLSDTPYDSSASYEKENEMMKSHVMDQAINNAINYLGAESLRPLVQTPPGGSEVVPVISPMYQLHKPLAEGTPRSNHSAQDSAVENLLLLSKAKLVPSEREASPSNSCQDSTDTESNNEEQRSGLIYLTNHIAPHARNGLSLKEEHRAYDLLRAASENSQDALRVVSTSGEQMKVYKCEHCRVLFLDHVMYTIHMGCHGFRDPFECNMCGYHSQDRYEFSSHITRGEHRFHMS
T5 sequence (Q96SW2 whole entry): as the sequence (Q96SW2 whole entry) above
T5 sequence (Q16531 whole entry partner): as the sequence (Q16531 whole entry partner) above
T1 sequence (P48729 whole entry): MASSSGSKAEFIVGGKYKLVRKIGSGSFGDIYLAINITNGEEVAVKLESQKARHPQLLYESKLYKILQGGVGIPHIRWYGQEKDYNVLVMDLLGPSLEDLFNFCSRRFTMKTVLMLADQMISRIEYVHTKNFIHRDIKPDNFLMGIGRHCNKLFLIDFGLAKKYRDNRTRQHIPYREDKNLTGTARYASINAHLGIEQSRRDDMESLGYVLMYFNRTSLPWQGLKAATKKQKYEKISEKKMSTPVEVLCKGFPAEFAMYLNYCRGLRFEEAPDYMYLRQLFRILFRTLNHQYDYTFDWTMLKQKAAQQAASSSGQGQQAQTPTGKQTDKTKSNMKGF
T1 sequence (Q96SW2 whole entry): as the sequence (Q96SW2 whole entry) above
T1 sequence (Q16531 whole entry partner): as the sequence (Q16531 whole entry partner) above

SMILES	CK1α substrate protein remaining % [1]	IKZF2 substrate protein remaining % [2]	WEE1 substrate protein remaining % [3]	IC50 [4]	GSPT1 substrate protein remaining % [5]	IKZF1 substrate protein remaining % [6]	IKZF3 substrate protein remaining % [7]	substrate protein remaining % CK1α [1]	substrate protein remaining % IKZF2 [2]	substrate protein remaining % WEE1 [3]	inhibition at 0.01 µM [4]	inhibition at 0.5 µM [4]	substrate protein remaining % GSPT1 [5]	substrate protein remaining % IKZF1 [6]	substrate protein remaining % IKZF3 [7]
O=C1CCN(N2Cc3cc(CN4CCN(c5ccccc5)CC4)ccc3C2=O)C(=O)N1 [GT-06696, 1-(1-oxo-5-((4-phenylpiperazin-1-yl)methyl)isoindolin-2-yl)dihydropyrimidine-2,4(1H,3H)-dione]	B ("B" is defined as 80%< substrate protein remaining %≤ 100%)	B ("B" is defined as 80%< substrate protein remaining %≤ 100%)	B ("B" is defined as 80%< substrate protein remaining %≤ 100%)	100 to 300 nM	A ("A" is defined as 0% ≤ substrate protein remaining % ≤ 80%)	B ("B" is defined as 80%< substrate protein remaining %≤ 100%)	B ("B" is defined as 80%< substrate protein remaining %≤ 100%)	–	–	–	–	–	–	–	–
O=C1CCN(N2Cc3cc(CN4CCN(c5ncnc6sc(-c7ccccc7)cc56)CC4)ccc3C2=O)C(=O)N1 [GT-08064, 1-(1-oxo-5-((4-(6-phenylthieno[2,3-d]pyrimidin-4-yl)piperazin-1-yl)methyl)isoindolin-2-yl)dihydropyrimidine-2,4(1H,3H)-dione]	–	–	–	–	–	–	–	B (80%< substrate protein remaining %≤ 100%)	A (0% ≤ substrate protein remaining % ≤ 80%)	B (80%< substrate protein remaining %≤ 100%)	25 to 30%	10 to 18%	B (80%< substrate protein remaining %≤ 100%)	B (80%< substrate protein remaining %≤ 100%)	B (80%< substrate protein remaining %≤ 100%)
O=C1CCN(N2Cc3cc(CN4CCC(c5cccc(Br)c5)CC4)ccc3C2=O)C(=O)N1 [GT-06885, 1-(5-((4-(3-bromophenyl)piperidin-1-yl)methyl)-1-oxoisoindolin-2-yl)dihydropyrimidine-2,4(1H,3H)-dione]	B ("B" is defined as 80%< substrate protein remaining %≤ 100%)	A ("A" is defined as 0% ≤ substrate protein remaining % ≤ 80%)	B ("B" is defined as 80%< substrate protein remaining %≤ 100%)	100 to 300 nM	A ("A" is defined as 0% ≤ substrate protein remaining % ≤ 80%)	A ("A" is defined as 0% ≤ substrate protein remaining % ≤ 80%)	B ("B" is defined as 80%< substrate protein remaining %≤ 100%)	–	–	–	–	–	–	–	–
O=C1CCN(N2Cc3cc(CN4CCN(c5ccc(Cl)cc5)CC4)ccc3C2=O)C(=O)N1 [GT-06765, 1-(5-((4-(4-chlorophenyl)piperazin-1-yl)methyl)-1-oxoisoindolin-2-yl)dihydropyrimidine-2,4(1H,3H)-dione]	A ("A" is defined as 0% ≤ substrate protein remaining % ≤ 80%)	B ("B" is defined as 80%< substrate protein remaining %≤ 100%)	B ("B" is defined as 80%< substrate protein remaining %≤ 100%)	500 to 1000 nM	B ("B" is defined as 80%< substrate protein remaining %≤ 100%)	B ("B" is defined as 80%< substrate protein remaining %≤ 100%)	B ("B" is defined as 80%< substrate protein remaining %≤ 100%)	–	–	–	–	–	–	–	–
COc1cccc(N2CCN(Cc3ccc4c(c3)CN(N3CCC(=O)NC3=O)C4=O)CC2)c1 [GT-06699, 1-(5-((4-(3-methoxyphenyl)piperazin-1-yl)methyl)-1-oxoisoindolin-2-yl)dihydropyrimidine-2,4(1H,3H)-dione]	B ("B" is defined as 80%< substrate protein remaining %≤ 100%)	B ("B" is defined as 80%< substrate protein remaining %≤ 100%)	B ("B" is defined as 80%< substrate protein remaining %≤ 100%)	100 to 300 nM	A ("A" is defined as 0% ≤ substrate protein remaining % ≤ 80%)	B ("B" is defined as 80%< substrate protein remaining %≤ 100%)	B ("B" is defined as 80%< substrate protein remaining %≤ 100%)	–	–	–	–	–	–	–	–
O=C1CCN(N2C(=O)c3ccc(CN4CCC(c5ncnc6sccc56)CC4)cc3C2=O)C(=O)N1 [GT-08106, 2-(2,4-dioxotetrahydropyrimidin-1(2H)-yl)-5-((4-(thieno[2,3-d]pyrimidin-4-yl)piperidin-1-yl)methyl)isoindoline-1,3-dione]	–	–	–	–	–	–	–	B (80%< substrate protein remaining %≤ 100%)	B (80%< substrate protein remaining %≤ 100%)	A (0% ≤ substrate protein remaining % ≤ 80%)	10 to 18%	18 to 25%	A (0% ≤ substrate protein remaining % ≤ 80%)	B (80%< substrate protein remaining %≤ 100%)	B (80%< substrate protein remaining %≤ 100%)
O=C1CCN(N2Cc3cc(CN4CCN(c5ccc(F)cc5)CC4)ccc3C2=O)C(=O)N1 [GT-06702, 1-(5-((4-(4-fluorophenyl)piperazin-1-yl)methyl)-1-oxoisoindolin-2-yl)dihydropyrimidine-2,4(1H,3H)-dione]	A ("A" is defined as 0% ≤ substrate protein remaining % ≤ 80%)	B ("B" is defined as 80%< substrate protein remaining %≤ 100%)	B ("B" is defined as 80%< substrate protein remaining %≤ 100%)	500 to 1000 nM	A ("A" is defined as 0% ≤ substrate protein remaining % ≤ 80%)	B ("B" is defined as 80%< substrate protein remaining %≤ 100%)	B ("B" is defined as 80%< substrate protein remaining %≤ 100%)	–	–	–	–	–	–	–	–
O=C1CCN(N2Cc3cc(CN4CCN(c5cccc(Br)c5)CC4)ccc3C2=O)C(=O)N1 [GT-06698, 1-(5-((4-(3-bromophenyl)piperazin-1-yl)methyl)-1-oxoisoindolin-2-yl)dihydropyrimidine-2,4(1H,3H)-dione]	B ("B" is defined as 80%< substrate protein remaining %≤ 100%)	B ("B" is defined as 80%< substrate protein remaining %≤ 100%)	B ("B" is defined as 80%< substrate protein remaining %≤ 100%)	100 to 300 nM	A ("A" is defined as 0% ≤ substrate protein remaining % ≤ 80%)	B ("B" is defined as 80%< substrate protein remaining %≤ 100%)	B ("B" is defined as 80%< substrate protein remaining %≤ 100%)	–	–	–	–	–	–	–	–

From patent EP4722207A1, “OXOISOINDOLINYL-SUBSTITUTED TETRAHYDROPYRIMIDINEDIONE DERIVATIVE AND USE THEREOF” (Gluetacs Therapeutics (Shanghai) Co., Ltd., priority 2023, dated 2024)
